Measurements from BindingDB's records for doi:10.1021/jm030306r (Merck Research Laboratories, 2003).

Target: Integrin alpha-IIb/beta-3 (Homo sapiens, UniProt P08514+P05106)
Assay: Inhibition of alphaIIb-beta3 integrin mediated platelet aggregation

Chain of Integrin alpha-IIb/beta-3 (P05106 27-788 limits assumed): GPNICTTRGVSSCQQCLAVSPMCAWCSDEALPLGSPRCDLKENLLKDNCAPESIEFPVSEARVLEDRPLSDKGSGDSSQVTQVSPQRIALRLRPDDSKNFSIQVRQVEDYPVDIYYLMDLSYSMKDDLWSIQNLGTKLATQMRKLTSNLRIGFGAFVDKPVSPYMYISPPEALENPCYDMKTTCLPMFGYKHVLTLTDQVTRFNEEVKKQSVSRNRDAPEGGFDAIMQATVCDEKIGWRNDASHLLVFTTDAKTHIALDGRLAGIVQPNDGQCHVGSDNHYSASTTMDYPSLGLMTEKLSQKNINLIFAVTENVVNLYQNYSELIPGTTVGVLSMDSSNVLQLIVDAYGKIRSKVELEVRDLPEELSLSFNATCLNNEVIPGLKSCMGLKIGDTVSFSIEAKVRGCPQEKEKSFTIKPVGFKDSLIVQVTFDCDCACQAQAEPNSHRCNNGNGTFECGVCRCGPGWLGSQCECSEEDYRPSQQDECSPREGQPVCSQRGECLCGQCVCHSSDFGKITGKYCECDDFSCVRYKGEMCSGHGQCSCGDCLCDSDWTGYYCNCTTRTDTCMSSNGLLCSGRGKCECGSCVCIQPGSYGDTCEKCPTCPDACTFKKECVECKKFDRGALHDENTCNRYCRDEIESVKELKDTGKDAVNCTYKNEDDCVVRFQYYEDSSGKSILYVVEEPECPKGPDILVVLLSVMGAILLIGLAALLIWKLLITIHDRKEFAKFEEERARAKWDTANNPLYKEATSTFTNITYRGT
Chain of Integrin alpha-IIb/beta-3 (P08514 32-887 limits assumed): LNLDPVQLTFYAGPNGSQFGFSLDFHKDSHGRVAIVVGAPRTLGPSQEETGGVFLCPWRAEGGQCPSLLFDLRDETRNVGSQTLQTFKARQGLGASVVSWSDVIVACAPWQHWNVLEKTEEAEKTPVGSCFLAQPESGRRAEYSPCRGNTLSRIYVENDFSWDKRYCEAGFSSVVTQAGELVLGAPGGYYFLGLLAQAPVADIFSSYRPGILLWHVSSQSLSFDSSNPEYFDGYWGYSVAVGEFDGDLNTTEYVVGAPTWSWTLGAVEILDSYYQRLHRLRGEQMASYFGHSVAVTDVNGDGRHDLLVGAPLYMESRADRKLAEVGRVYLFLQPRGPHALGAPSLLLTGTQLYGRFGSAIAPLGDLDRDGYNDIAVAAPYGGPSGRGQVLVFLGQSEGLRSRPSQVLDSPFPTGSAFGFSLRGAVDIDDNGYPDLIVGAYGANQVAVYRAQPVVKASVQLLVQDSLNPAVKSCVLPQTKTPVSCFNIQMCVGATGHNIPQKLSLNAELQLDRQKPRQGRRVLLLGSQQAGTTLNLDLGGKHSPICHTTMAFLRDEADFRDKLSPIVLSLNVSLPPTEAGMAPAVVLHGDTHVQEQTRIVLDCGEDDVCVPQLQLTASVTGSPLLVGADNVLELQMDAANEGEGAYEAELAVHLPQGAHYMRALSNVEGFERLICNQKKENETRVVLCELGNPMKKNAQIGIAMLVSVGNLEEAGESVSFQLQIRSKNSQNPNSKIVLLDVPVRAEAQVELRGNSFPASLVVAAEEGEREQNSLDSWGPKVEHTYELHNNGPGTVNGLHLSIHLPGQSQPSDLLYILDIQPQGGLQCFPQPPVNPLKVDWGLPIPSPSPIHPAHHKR
Chain of Integrin alpha-IIb/beta-3 (P08514 891-1039 limits assumed): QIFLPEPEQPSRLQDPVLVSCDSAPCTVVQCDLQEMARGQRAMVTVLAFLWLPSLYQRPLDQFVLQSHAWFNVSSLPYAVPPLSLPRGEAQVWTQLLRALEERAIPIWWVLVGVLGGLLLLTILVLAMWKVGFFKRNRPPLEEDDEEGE

IC50: 34.7 µM
SMILES: COc1ccc([C@H](CC(=O)O)N2CCN(CCCc3ccc4c(n3)NCCC4)C2=O)cn1 [(S)-3-(6-Methoxy-pyridin-3-yl)-3-{2-oxo-3-[3-(5,6,7,8-tetrahydro-[1,8]naphthyridin-2-yl)-propyl]-imidazolidin-1-yl}-propionic acid]
